Measurements reported in patent US20120009280A1, “METHOD OF REDUCING THE RATE OF DEGRADATION OF A BIOLOGICAL MATERIAL” (Bio-Energy Ingredients Limited, priority 2009, published 2012).

Experiments:
[1] = test system: mould; assay: Mould count of spent brewer's / wet distiller's grains stored at ambient temperature; assay type: cell-based
Procedure: (§1) Samples of Portion 1 (“AR”), Portion 3 (“SO”) and Portion 5 (“SH”) were then delivered to a microbiological testing facility about 15 kilometres from the treatment laboratory. Each was tested for initial total microbial, yeast and mould counts, respectively.
(§2) Separate untreated samples were similarly stored under insect-proof screens at ambient temperature for seven days (as shown in Tables 1 and 2). During the trial period the ambient temperature ranged from 11 to 33 degrees C.
The free moisture content on the initial spent brewer's grains was determined to be 78.1% m/m. After exposure to the environment for seven days, all of the samples were tested at a South African National Accreditation System (SANAS) approved microbiological testing facility. Each was tested for total micro-organism, yeast and mould counts to determine the affect of the various treatments. A similar procedure to that described in K. A. Rosentrater et al, Food Bioprocess Technol (2008) was used for the microbiological evaluation.
At the laboratory, the samples were thoroughly mixed and initially split into a first portion (Portion 1) and a second portion (Portion 2). Portion 1 was left untreated. A sample of Portion 1, was delivered immediately to a microbiological testing facility about 15 kilometres away from the treatment laboratory and was tested for initial total microbial, yeast and mould counts, respectively. No water removal prior to treatment was done in this experiment as was the case in Example 8 wherein a similar wet material was partially dewatered by pressing and the residue treated with 10% (w/w/) calcium oxide.
Samples from Portion 2 were subjected to treatment with varying amounts of a powdered, commercially-available calcium oxide containing approximately 94% calcium oxide (CaO) as shown in Table 32. […] The samples were stored in batches (according to the calcium oxide treatment) under insect-proof screens at ambient temperature for fifty six days. Separate untreated samples were similarly stored under insect-proof screens at ambient temperature for a total of 56 days. During the trial period the ambient temperature ranged from 10 to 30 degrees C. As this period was the southern hemisphere spring/early summer, the humidity as well as ambient temperatures varied widely.
The free moisture content on the initial spent brewer's grains was determined to be 79.4% m/m. After exposure to the environment for seven days, all of the samples were tested at a South African National Accreditation System (SANAS) approved microbiological testing facility. Each was tested for total micro-organism, yeast and mould counts to determine the affect of the various treatments. A similar procedure to that described in K. A. Rosentrater et al, Food Bioprocess Technol (2008) was used for the microbiological evaluation.
(§3) Samples from each treatment were drawn every seven days. No further calcium oxide treatment or agitation took place after the initial mix. In each case the entire sample was isolated and delivered to the microbiological testing facility.
The calcium oxide treatment trial described in Example 9 wherein wet distiller's grains were treated with 2.5%, 5% and 10.0% calcium oxide, respectively, versus untreated material was repeated using lower doses of calcium oxide. In this trial the same source of wet distiller's grains (again with now partial water removal prior to treatment) was treated. Also, the same protocol as described in Example 9 was applied, but at lower doses of calcium oxide i.e. 0.5%, 1.0%, 1.5%, 2.0% and 2.5%, respectively, versus untreated material.
In this trial the same source of wet distiller's grains (again with now partial water removal prior to treatment) was treated. Also, the same protocol as described in Example 9 was applied.

[2] = pH of suspensions of grain samples in distilled water or PBS; details: 1% (w/w) in distilled water
Procedure: The untreated sample (A) was compared visually against the corresponding quicklime-treated sample (B).
On Day 7, 10 g amounts of each sample were suspended in either 90 ml PBS or 90 ml sterile distilled water and shaken for 10 minutes. The pH of each suspension was then measured and compared.
On Day 9, 10 g of each sample was suspended in 90 ml PBS and shaken for 10 minutes. The pH was measured.

[3] = test system: yeast; assay: Yeast count of spent brewer's / wet distiller's grains stored at ambient temperature; assay type: cell-based
[4] = test system: total micro-organism; assay: Total microbial (plate) count of spent brewer's / wet distiller's grains stored at ambient temperature; assay type: cell-based; design: total microbial count: unit: cfu/gram
Description: Samples of spent brewer's grains were drawn from the discharge line of a brewery in South Africa. The samples, packed in dry ice in a cold box, were transported over a distance of approximately 40 kilometres to a laboratory. At the laboratory, the samples were thoroughly mixed and initially split into a first portion (Portion 1) and a second portion (Portion 2). The second portion was about twice the size of the first. Portion 1 was left untreated. Material produced from Portion 1 and Portion 2 is designated below using the code “AR” (as received).
Portion 2 was placed on a clean, standard, laboratory screen deck with 1.4 mm apertures supported from below. As much water as possible was manually squeezed out with a clean flat plastic disc and the sample was then manually remixed after the squeezing. The squeezed material was then split into a third portion (Portion 3) and a fourth portion (Portion 4) of approximately the same size. Material produced from Portion 3 and Portion 4 is designated below using the code “SO” (squeezed).
Portion 4 was added to a high speed kitchen food-shredder and shredded for about two minutes. The shredded material was then returned to the 1.4 mm aperture screen and squeezed again, as described above, and manually remixed again after the second squeezing to produce a shredded and squeezed portion (Portion 5). Material produced from Portion 5 is designated below using the code “SH” (shredded).
as §1, §2
After exposure to the environment for seven days, all of the samples were tested at a South African National Accreditation System (SANAS) approved microbiological testing facility. Each was tested for total micro-organism, yeast and mould counts to determine the affect of the various treatments.
Samples of spent brewer's grains were drawn from the discharge line of a brewery in South Africa.
At the laboratory, the samples were thoroughly mixed and initially split into a first portion (Portion 1) and a second portion (Portion 2). Portion 1 was left untreated. A sample of Portion 1, was delivered immediately to a microbiological testing facility about 15 kilometres away from the treatment laboratory and was tested for initial total microbial, yeast and mould counts, respectively.
Samples from Portion 2 were subjected to treatment with varying amounts of a powdered, commercially-available calcium oxide containing approximately 94% calcium oxide (CaO) as shown in Table 32. The treatments varied from 2.5 to 10% (w/w) calcium oxide addition. The samples were stored in batches (according to the calcium oxide treatment) under insect-proof screens at ambient temperature for fifty six days. […] During the trial period the ambient temperature ranged from 10 to 30 degrees C. As this period was the southern hemisphere spring/early summer, the humidity as well as ambient temperatures varied widely.
as §3
(§4) In this trial the same source of wet distiller's grains (again with now partial water removal prior to treatment) was treated.
as §4

[Ca+2].[O-]CC(O)CO.[O-]CC(O)CO [Ca-DGO powder + granules (1:1)]
Mould Count ([1]; dose 15% (w/w), week 1): <10 cfu/gram | Mould Count ([1]; dose 15% (w/w), week 2): <10 cfu/gram | Mould Count ([1]; dose 15% (w/w), week 3): <10 cfu/gram | Mould Count ([1]; dose 15% (w/w), week 4): <10 cfu/gram | Mould Count ([1]; dose 15% (w/w), week 5): <10 cfu/gram | Mould Count ([1]; dose 15% (w/w), week 6): <10 cfu/gram | Mould Count ([1]; dose 15% (w/w), week 7): <10 cfu/gram | Mould Count ([1]; dose 15% (w/w), week 8): <10 cfu/gram | Mould Count ([1]; dose 15% (w/w), week 9): <10 cfu/gram | pH ([2]; dose 15% (w/w), week 1): 11.47 | pH ([2]; dose 15% (w/w), week 2): 7.57 | pH ([2]; dose 15% (w/w), week 3): 7.88 | pH ([2]; dose 15% (w/w), week 4): 9.29 | pH ([2]; dose 15% (w/w), week 5): 6.78 | pH ([2]; dose 15% (w/w), week 6): 9.27 | pH ([2]; dose 15% (w/w), week 7): 7.23 | pH ([2]; dose 15% (w/w), week 8): 9.18 | pH ([2]; dose 15% (w/w), week 9): 8.93 | Yeast Count ([3]; dose 15% (w/w), week 1): <10 cfu/gram | Yeast Count ([3]; dose 15% (w/w), week 2): <10 cfu/gram | Yeast Count ([3]; dose 15% (w/w), week 3): <10 cfu/gram | Yeast Count ([3]; dose 15% (w/w), week 4): <10 cfu/gram | Yeast Count ([3]; dose 15% (w/w), week 5): 20 cfu/gram | Yeast Count ([3]; dose 15% (w/w), week 6): <10 cfu/gram | Yeast Count ([3]; dose 15% (w/w), week 7): <10 cfu/gram | Yeast Count ([3]; dose 15% (w/w), week 8): <10 cfu/gram | Yeast Count ([3]; dose 15% (w/w), week 9): <10 cfu/gram | Total plate count ([4]; dose 15% (w/w), week 0): 540 cfu/gram | Total plate count ([4]; dose 15% (w/w), week 1): 50 cfu/gram | Total plate count ([4]; dose 15% (w/w), week 2): 710 cfu/gram | Total plate count ([4]; dose 15% (w/w), week 3): 70 cfu/gram | Total plate count ([4]; dose 15% (w/w), week 4): <10 cfu/gram | Total plate count ([4]; dose 15% (w/w), week 6): 150 cfu/gram | Total plate count ([4]; dose 15% (w/w), week 7): 660 cfu/gram | Total plate count ([4]; dose 15% (w/w), week 8): 4200 cfu/gram | Total plate count ([4]; dose 15% (w/w), week 9): 45000 cfu/gram

[Ca+2].[O-]CC(O)CO.[O-]CC(O)CO [Ca-DGO powder]
Mould Count ([1]; dose 15% (w/w), week 0): <10 cfu/gram | Mould Count ([1]; dose 15% (w/w), week 1): <10 cfu/gram | Mould Count ([1]; dose 15% (w/w), week 2): <10 cfu/gram | Mould Count ([1]; dose 15% (w/w), week 3): <10 cfu/gram | Mould Count ([1]; dose 15% (w/w), week 4): <10 cfu/gram | Mould Count ([1]; dose 15% (w/w), week 5): <10 cfu/gram | Mould Count ([1]; dose 15% (w/w), week 6): <10 cfu/gram | Mould Count ([1]; dose 15% (w/w), week 7): <10 cfu/gram | Mould Count ([1]; dose 15% (w/w), week 8): <10 cfu/gram | Mould Count ([1]; dose 15% (w/w), week 9): 350 cfu/gram | pH ([2]; dose 15% (w/w), week 0): 11.50 | pH ([2]; dose 15% (w/w), week 1): 11.73 | pH ([2]; dose 15% (w/w), week 2): 7.33 | pH ([2]; dose 15% (w/w), week 3): 7.38 | pH ([2]; dose 15% (w/w), week 4): 8.83 | pH ([2]; dose 15% (w/w), week 6): 9.18 | pH ([2]; dose 15% (w/w), week 8): 9.14 | pH ([2]; dose 15% (w/w), week 9): 9.07 | Yeast Count ([3]; dose 15% (w/w), week 0): <10 cfu/gram | Yeast Count ([3]; dose 15% (w/w), week 1): <10 cfu/gram | Yeast Count ([3]; dose 15% (w/w), week 2): <10 cfu/gram | Yeast Count ([3]; dose 15% (w/w), week 3): <10 cfu/gram | Yeast Count ([3]; dose 15% (w/w), week 4): <10 cfu/gram | Yeast Count ([3]; dose 15% (w/w), week 5): <10 cfu/gram | Yeast Count ([3]; dose 15% (w/w), week 6): <10 cfu/gram | Yeast Count ([3]; dose 15% (w/w), week 7): <10 cfu/gram | Yeast Count ([3]; dose 15% (w/w), week 8): <10 cfu/gram | Yeast Count ([3]; dose 15% (w/w), week 9): <10 cfu/gram | Total plate count ([4]; dose 15% (w/w), week 0): 40 cfu/gram | Total plate count ([4]; dose 15% (w/w), week 1): 80 cfu/gram | Total plate count ([4]; dose 15% (w/w), week 3): 100 cfu/gram | Total plate count ([4]; dose 15% (w/w), week 4): 10 cfu/gram | Total plate count ([4]; dose 15% (w/w), week 6): 50 cfu/gram | Total plate count ([4]; dose 15% (w/w), week 7): 40 cfu/gram | Total plate count ([4]; dose 15% (w/w), week 8): 70 cfu/gram | Total plate count ([4]; dose 15% (w/w), week 9): 10 cfu/gram

[Ca+2].[O-]CC(O)CO.[O-]CC(O)CO [calcium diglyceroxide granules, calcium diglyceroxide]
total microbial count ([4]; granules 10% (w/w), 2 week time point): below 10 | total microbial count ([4]; granules 10% (w/w), 3 week time point): 540 | total microbial count ([4]; granules 10% (w/w), 4 week time point): 60 | total microbial count ([4]; granules 10% (w/w), 5 week time point): 650 | effective period ([4]; granules 10% (w/w), Example 18): ~7 weeks

Ca(OH2
Mould Count ([1]; 6.6% (w/w) powder, week 1): 10 cfu/gram | Mould Count ([1]; 6.6% (w/w) powder, week 2): 10 cfu/gram | Mould Count ([1]; 6.6% (w/w) powder, week 3): 10 cfu/gram | Mould Count ([1]; 6.6% (w/w) powder, week 4): 10 cfu/gram | Mould Count ([1]; 6.6% (w/w) powder, week 5): 10 cfu/gram | pH ([2]; 6.6% (w/w) powder, week 1): 11.55 | pH ([2]; 6.6% (w/w) powder, week 2): 11.26 | pH ([2]; 6.6% (w/w) powder, week 3): 12.10 | pH ([2]; 6.6% (w/w) powder, week 4): 8.23 | pH ([2]; 6.6% (w/w) powder, week 5): 11.47 | Yeast Count ([3]; 6.6% (w/w) powder, week 1): 10 cfu/gram | Yeast Count ([3]; 6.6% (w/w) powder, week 2): 10 cfu/gram | Yeast Count ([3]; 6.6% (w/w) powder, week 3): 10 cfu/gram | Yeast Count ([3]; 6.6% (w/w) powder, week 4): 120 cfu/gram | Yeast Count ([3]; 6.6% (w/w) powder, week 5): 10 cfu/gram | Total plate count ([4]; 6.6% (w/w) powder, week 1): 420 cfu/gram | Total plate count ([4]; 6.6% (w/w) powder, week 2): 140 cfu/gram | Total plate count ([4]; 6.6% (w/w) powder, week 3): 640 cfu/gram | Total plate count ([4]; 6.6% (w/w) powder, week 4): 170 cfu/gram | Total plate count ([4]; 6.6% (w/w) powder, week 5): 20 cfu/gram
